Reference: patent US8415312B2, “Compound which is a nystatin derivative” (Biosergen AS, priority 2007, dated 2013)
Converted amounts (≈) assume the structure as drawn. “And” between values parts separate entries of the source, which are not always exact repeats. Identical values can stand only once.

Assays:
[1] = tested on: Candida albicans ATCC 14053; experiment: Antifungal susceptibility study (1), broth microdilution MIC; format: cell-based; details: lowest concentration preventing any visible growth, read at 48 hours, 35° C., RPMI 1640 pH 7.0
Experimental: (§1) ACROS ORGANICS, New Jersey, USA), pH 7.0, was used in study. […] Then these DMSO solutions were diluted 50-fold (first 10-fold and then 5-fold) in the test medium. […] The solutions were prepared just before using. The organisms used for susceptibility testing were: Candida albicans ATCC 14053, Cryptococcus humicolus ATCC 9949, Aspergillus niger ATCC 16404 and Fusarium oxysporum VKM F-140 (=CMI, IMI 90473). Organisms were stored on potato dextrose agar […] 50% glycerol solution at -70° C. For short-term storage, stock cultures were stored on agar […] 4° C. The cultures of yeasts were sub-cultured onto Sabouraud dextrose (SAB) agar and incubated for 24 hours at 35° C. (Candida albicans) or for 48 hours at 25° C. (Cryptococcus humicolus) to obtain a freshly grown pure culture. The cultures of moulds were sub-cultured onto potato dextrose agar and incubated for 7 days at 35° C. […] (Fusarium oxysporum) to ensure maximum sporulation. […] Inoculum quantitation was performed by plating dilution of the inoculum on Sabouraud dextrose agar to determine the viable number of CFU per milliliter. Sterile 96-well flat-bottomed microtitration plates were used for testing. 100 μl of diluted inocula were dispensed into each microdilution well containing 100 μl of the double dilutions of compounds. Drug-free and yeast/mould-free controls were included. Microdilution trays were incubated at 35° C. (Candida albicans and moulds) or 25° C. (Cryptococcus humicolus) without agitation and observed for the presence or absence of visible growth. […] Minimal inhibitory concentrations (MICs) were read at 48 hours.

[2] = tested on: Cryptococcus humicolus ATCC 9949; experiment: as above; format: cell-based; details: lowest concentration preventing any visible growth, read at 48 hours, 25° C., RPMI 1640 pH 7.0
Experimental: as §1

[3] = tested on: Aspergillus niger ATCC 16404; experiment: as above; format: cell-based; details: lowest concentration preventing any visible growth, read at 48 hours, 35° C., RPMI 1640 pH 7.0
Experimental: (§2) ACROS ORGANICS, New Jersey, USA), pH 7.0, was used in study. […] Then these DMSO solutions were diluted 50-fold (first 10-fold and then 5-fold) in the test medium. […] The solutions were prepared just before using. The organisms used for susceptibility testing were: Candida albicans ATCC 14053, Cryptococcus humicolus ATCC 9949, Aspergillus niger ATCC 16404 and Fusarium oxysporum VKM F-140 (=CMI, IMI 90473). Organisms were stored on potato dextrose agar […] 50% glycerol solution at -70° C. For short-term storage, stock cultures were stored on agar […] 4° C. The cultures of yeasts were sub-cultured onto Sabouraud dextrose (SAB) agar and incubated for 24 hours at 35° C. (Candida albicans) or for 48 hours at 25° C. (Cryptococcus humicolus) to obtain a freshly grown pure culture. The cultures of moulds were sub-cultured onto potato dextrose agar and incubated for 7 days at 35° C. […] (Fusarium oxysporum) to ensure maximum sporulation. […] Finally, the suspensions were vortexed for 15 s to break up clumps of cells and then filtered through four layers of sterile gauze. The densities of conidial spore suspensions was measured at 530 nm and adjusted to 0.09-0.11 for Aspergillus niger and 0.15-0.17 for Fusarium oxysporum. These suspensions were diluted 1:50 with the standard medium. […] Inoculum quantitation was performed by plating dilution of the inoculum on Sabouraud dextrose agar to determine the viable number of CFU per milliliter. Sterile 96-well flat-bottomed microtitration plates were used for testing. 100 μl of diluted inocula were dispensed into each microdilution well containing 100 μl of the double dilutions of compounds. Drug-free and yeast/mould-free controls were included. Microdilution trays were incubated at 35° C. (Candida albicans and moulds) or 25° C. (Cryptococcus humicolus) without agitation and observed for the presence or absence of visible growth. […] Minimal inhibitory concentrations (MICs) were read at 48 hours.

[4] = tested on: Fusarium oxysporum VKM F-140; experiment: as above; format: cell-based; details: lowest concentration preventing any visible growth, read at 48 hours, 35° C., RPMI 1640 pH 7.0
Experimental: as §2

[5] = tested on: erythrocytes; experiment: In vitro toxicity study, haemolysis (Tables 11 and 12); format: cell-based, horse; details: for Haemolysis of erythrocytes, Mean ± S.E.M.: 25 μM (Table 12)
Experimental: The toxicity of various nystatin derivatives was tested at 2 and 5 μg/mL and at 25 μM.
Compounds were dissolved in DMSO at 5 mg/mL and 0.1 mL samples with different concentrations were prepared in DMSO. The samples were mixed with 0.9 mL PBS buffer containing 2.5% horse blood (PBS-HB; kept on ice) and incubated at 37° C. for 30 min without agitation.
Cells were pelleted by centrifugation at 5000 rpm for 5 min and haemolysis was evaluated by measuring OD545. 100% haemolysis was defined as the OD545 value obtained from a suspension of 2.5% horse blood in distilled water.

[6] = tested on: mice (C57B1/6xDBA/2)F1 B6D2F1; details: single injection into tail vein, probit analysis
Experimental: Male mice of hybrids of first generation (C57B1/6xDBA/2)F1 B6D2F1, weight 20-22 g., received from the Central farm. “Kryukovo” of Russian Academies of Medical Science (RAMS) were used. Animals were maintained in a vivarium in plastic cages (with hardwood bedding in environmentally controlled conditions: 24±1° C., 12/12 hours light/dark cycle) on a standard diet of bricketed forages with easy access to drinking water (ad libitum). After a 2-week quarantine period, healthy animals were used in experimental work.
The solutions were prepared as follows: dry antibiotic substances (5 mg) were mixed with dry sodium deoxycholate (4.1 mg) in a sterile glass vial. 10 mL of phosphate buffer (NaH2PO4—1.59 g; Na2HPO4—0.96 g; H2O—to 100 mL) was added to the mix and the suspension was immediately subjected to vigorous shaking for 10 minutes until homogeneous suspensions were formed.
Preparations of amphotericin B and S44HP were also prepared in the same way.
The antibiotic preparations were singly injected into the mice's tail vein within 1-1.5 hours after the preparation of solutions. […] Each antibiotic was used in a range of doses resulting in 0% to 100% lethality and a minimum of 3 intermediate doses. Animals were randomized into groups, each containing 6 mice.

[7] = tested on: Candida albicans (strain 14053 ATCC); experiment: Model of the candidiasis sepsis of mice, kidney burden; format: in vivo
Experimental: In experiments used female mice of hybrids of first generation (C57B1/6xDBA/2)F1 (B6D2F1), weight 18-20 g., received from the Central farm “Kryukovo” of Russian Academies of Medical Science (RAMS). Animals were maintained in Institute' vivarium in plastic cages (with hardwood bedding in environmentally controlled room: 24±1° C., 12/12 hours light/dark cycle) on a standard diet of bricketed forages with an easy approach to drinking water (ad libitum). After 2-week quarantine healthy animals were used in experimental work.
A preparation of comparison was amphotericin B (pure). Solutions of tested preparations prepared ex tempore by the technique specified by the customer.
Animals were housed on 3 mice and infected intravenously with culture Candida albicans in a doze 1.0 million CFU/mouse in volume of 0.1 ml. It is necessary to note, that doze Candida albicans remained a constant in all experiments. In 30 minutes after infection to mice carried out the first intravenous introduction of tested preparations in corresponding dozes in volume of 0.2 ml (with a speed of 0.2 ml/30 second).
Experiment has been planned in such a manner that in each experiment one doze (both for amphotericin B was used, and for tested preparations), each doze entered daily within four days, since day of infection (0, 1, 2 and 3 days). At each experiment there was a group untreated, infected with Candida albicans animals. Also there was a group “placebo”, intact (not infected) animals, which intravenously (in the same volume as medical preparations) injected 0.2 ml of solvent—phosphatic buffer +5% glucose (1:1).
On the post challenge 5th day of experiment, mice were weighed and euthanized (killed) by a cervical dislocation. Then, in sterile conditions, Candida albicans burdens were determined by viable counting of homogenates from the kidneys. The kidneys, which were removed aseptically and weighed, pounded in porcelain mortars with sterile corundum, did dilutions of the received suspensions and sowed on Petri dishes with agar Saburo, incubated for 48 hours at temperature 35° C., then counted up developed colonies Candida albicans and recalculated their quantity on 1 g of kidney' tissue. The first dilution was 10^−1. Zero result at this cultivation accepted for 5 CFU/g.
For the basic criterion of an assessment of the investigated preparations the maximal effect of the Amphotricin B was accepted (effective dose, ED).
For significant accepted distinctions of average at P≦0.05 at comparison by Student t-criterion.

[8] = 25 μM, individual blood samples (Table 12)
[9] = dose 0.16 mg/kg/d i.v. for four days, day 5, n=3 mice
[10] = dose 0.62 mg/kg/d i.v. for four days, day 5, n=3 mice
[11] = dose 2.5 mg/kg/d i.v. for four days, day 5, n=3 mice
[12] = dose 10 mg/kg/d i.v. for four days, day 5, n=3 mice, zero result accepted for 5 CFU/g

SMILES	MIC Candida albicans ATCC 14053 [1]	MIC Cryptococcus humicolus ATCC 9949 [2]	MIC Aspergillus niger ATCC 16404 [3]	MIC Fusarium oxysporum VKM F-140 [4]	Haemolysis of erythrocytes, Mean ± SE ([5]; 5 μg/mL (Table 11))	Haemolysis of erythrocytes ([5]; 5 μg/mL, individual blood samples # 1-3 (Table 11))	Haemolysis of erythrocytes, Mean ± S.E.M. [5]	Haemolysis of erythrocytes [5, 8]	LD50 [6]	MTD [6]	Candida albicans burden in kidneys (Mean) [7, 9]	Candida albicans burden in kidneys (Mean) [7, 10]	Candida albicans burden in kidneys (Mean) [7, 11]	Candida albicans burden in kidneys (Mean) [7, 12]	Candida albicans burden in kidneys (Mean) ([7]; in vivo, iv, 1.25 mg/kg/day)	Candida albicans burden in kidneys (Mean) ([7]; dose 1.25 mg/kg/d i.v. for four days, day 5, n=3 mice)
CC1C=CC=CC=CC=CC=CC=CC=CC(OC2OC(C)C(O)C(N)C2O)CC2OC(O)(CC(O)C(O)CCC(O)CC(O)CC(O)CC(=O)OC(C)C(C)C1O)CC(O)C2C(N)=O (stereo not drawn) [Compound 7]	2 µg/mL (≈ 2.17 µM)	1 µg/mL (≈ 1.08 µM)	2 µg/mL (≈ 2.17 µM)	8 µg/mL (≈ 8.67 µM)	5.2 ± 0.2%	5.8% and 5.0% (2×)	1.5 ± 0.17%	1.7% and 1.3% and 1.9% (3×) and 1.0% and 0.9%								
CC1C=CC=CC=CC=CC=CC=CC=CC(OC2OC(C)C(O)C(NCC3(O)OCC(O)C(O)C3O)C2O)CC2OC(O)(CC(O)C(O)CCC(O)CC(O)CC(O)CC(=O)OC(C)C(C)C1O)CC(O)C2C(=O)O (single isomer, unassigned) [Compound 18]	1 µg/mL (≈ 0.921 µM)	1 µg/mL (≈ 0.921 µM)	2 µg/mL (≈ 1.84 µM)	8 µg/mL (≈ 7.36 µM)			3.9 ± 1.3%	3.0% and 3.2% and 9.7% and 1.0% and 1.5% and 5.3%								
CC1O[C@@H](O[C@H]2/C=C/C=C/C=C/C=C/C=C/C=C/C=C/[C@H](C)[C@@H](O)[C@@H](C)[C@H](C)OC(=O)C[C@H](O)C[C@H](O)C[C@H](O)CC[C@@H](O)[C@H](O)C[C@]3(O)C[C@H](O)[C@@H](C(=O)NCCN(C)C)[C@H](C2)O3)[C@H](O)C(NCC2(O)OC[C@@H](O)[C@@H](O)[C@@H]2O)[C@@H]1O.Cl (stereo partly drawn) [Compound 41]	0.5 µg/mL	1 µg/mL	1 µg/mL	2 µg/mL					38.6 mg/kg	21.2 mg/kg	67000 CFU/g	22667 CFU/g	1667 CFU/g	5 CFU/g	2767 CFU/g	
CC1C=CC=CC=CC=CC=CC=CC=CC(OC2OC(C)C(O)C(NCC3(O)OCC(O)C(O)C3O)C2O)CC2OC(O)(CC(O)C(O)CCC(O)CC(O)CC(O)CC(=O)OC(C)C(C)C1O)CC(O)C2C(=O)O (single isomer, unassigned) [Compound 17]	1 µg/mL (≈ 0.921 µM)	1 µg/mL (≈ 0.921 µM)	2 µg/mL (≈ 1.84 µM)	8 µg/mL (≈ 7.36 µM)			2.4 ± 0.6%	1.7% (2×) and 2.1% and 0.8% and 3.3% and 4.8%								
CC1O[C@@H](O[C@H]2/C=C/C=C/C=C/C=C/C=C/C=C/C=C/[C@H](C)[C@@H](O)[C@@H](C)[C@H](C)OC(=O)C[C@H](O)C[C@H](O)C[C@H](O)CC[C@@H](O)[C@H](O)C[C@]3(O)C[C@H](O)[C@@H](C(=O)NCCN(C)C)[C@H](C2)O3)[C@H](O)C(N)[C@@H]1O (stereo partly drawn) [Compound 48, N,N-dimethylaminoethyl (DMAE) S44HP Amide]	0.5 µg/mL (≈ 0.503 µM)	0.5 µg/mL (≈ 0.503 µM)	1 µg/mL (≈ 1.01 µM)	1 µg/mL (≈ 1.01 µM)					32.2 mg/kg	25.9 mg/kg	51667 CFU/g	3233 CFU/g	63 CFU/g	5 CFU/g		1487 CFU/g
CC1C=CC=CC=CC=CC=CC=CC=CC(OC2OC(C)C(O)C(N)C2O)CC2OC(O)(CC(O)C(O)CCC(O)CC(O)CC(O)CC(=O)OC(C)C(C)C1O)CC(O)C2C(=O)NCCO (stereo not drawn) [Compound 5]	2 µg/mL (≈ 2.07 µM)	4 µg/mL (≈ 4.14 µM)	4 µg/mL (≈ 4.14 µM)	4 µg/mL (≈ 4.14 µM)			1.6 ± 0.2%	1% and 1.9% and 1.3% and 2% and 1.8% and 2.1%								
